Experimental data published in paper PMC6445242, “Novel tetrazole and cyanamide derivatives as inhibitors of cyclooxygenase-2 enzyme: design, synthesis, anti-inflammatory evaluation, ulcerogenic liability and docking study” (Journal of Enzyme Inhibition and Medicinal Chemistry, 2017).
Entries after “also recorded” stand apart in the source; their conditions may differ.

Assays:
[1] = system: gastric mucosa (ulcer number, ulcer index); test: Ulcerogenic liability; type: in vivo, rat; settings: 50 mg/kg oral, three successive days, rats; for Ulcer index: sum of % incidence, average severity and average number of ulcers
Method: Female wister rats (150–200 g) were used in this study. The animals were kept at controlled conditions (temperature 23 ± 2 °C, humidity 60 ± 10%) and a 12/12-h light/dark cycle with access to food and water. All procedures relating to animal care and treatments were performed according to protocols approved by the Research Ethical Committee of Faculty of Pharmacy Beni-Suef University (2014-Beni-Suef, Egypt).
[…]. Forty-eight rats were used in this study, divided into 12 groups and fasted for 18 h before drug administration. The control group received the vehicle (2.5% Tween 80). Other groups received test compounds, celecoxib or indomethacin at a dose of 50 mg/kg, then animals were fed after 2 h. Rats were given the specified dose orally for three successive days. Rats were sacrificed after 2 h of the last dose, then the stomach of each rat was removed and opened along the greater curvature for determination of the ulcer number and ulcer index according to the reported method.

ovine COX-2 = molecular target: T1, ovine COX-2 (Ovis aries, UniProt P79208); test: In vitro COX-2 inhibition assay (EIA kit, Cayman); settings: for SI, COX-2 selectivity index (COX-1 IC50/COX-2 IC50): ovine enzymes; for IC50: IC50 COX-2, ovine COX-2, mean of two determinations
T1 sequence (P79208 17-603): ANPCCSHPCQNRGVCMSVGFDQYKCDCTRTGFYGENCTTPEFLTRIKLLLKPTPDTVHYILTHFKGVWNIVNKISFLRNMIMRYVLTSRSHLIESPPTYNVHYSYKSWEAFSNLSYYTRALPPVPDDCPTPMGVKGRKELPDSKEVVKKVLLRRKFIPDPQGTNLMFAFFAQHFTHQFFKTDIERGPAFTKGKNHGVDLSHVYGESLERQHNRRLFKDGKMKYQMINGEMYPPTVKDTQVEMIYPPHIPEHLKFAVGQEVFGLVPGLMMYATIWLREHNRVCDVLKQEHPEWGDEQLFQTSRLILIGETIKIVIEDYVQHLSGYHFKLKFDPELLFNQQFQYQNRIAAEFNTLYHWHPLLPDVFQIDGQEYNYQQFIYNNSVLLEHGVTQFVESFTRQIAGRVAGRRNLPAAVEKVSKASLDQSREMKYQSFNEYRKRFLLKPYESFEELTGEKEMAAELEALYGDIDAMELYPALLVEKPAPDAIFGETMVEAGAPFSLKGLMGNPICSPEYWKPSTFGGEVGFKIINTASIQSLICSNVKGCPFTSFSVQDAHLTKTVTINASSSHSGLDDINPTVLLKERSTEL
Method: (§1) The peroxidase activity of cyclooxygenase enzyme isoforms was measured using the COX activity assay kit. The ability of the test compounds to inhibit both ovine COX-1 and COX-2 enzymes was explored in vitro using a colorimetric enzyme immunoassay (EIA) kit. The appearance of oxidised N,N,N′,N′-tetramethyl-p-phenylenediamine (TMPD) was monitored at 590 nm. The kit includes isozyme-specific inhibitors for distinguishing COX-2 activity from that of COX-1.

ovine COX-1 = molecular target: T2, ovine COX-1 (Ovis aries, UniProt P05979); test: In vitro COX-1 inhibition assay (EIA kit, Cayman)
T2 sequence (P05979 25-600): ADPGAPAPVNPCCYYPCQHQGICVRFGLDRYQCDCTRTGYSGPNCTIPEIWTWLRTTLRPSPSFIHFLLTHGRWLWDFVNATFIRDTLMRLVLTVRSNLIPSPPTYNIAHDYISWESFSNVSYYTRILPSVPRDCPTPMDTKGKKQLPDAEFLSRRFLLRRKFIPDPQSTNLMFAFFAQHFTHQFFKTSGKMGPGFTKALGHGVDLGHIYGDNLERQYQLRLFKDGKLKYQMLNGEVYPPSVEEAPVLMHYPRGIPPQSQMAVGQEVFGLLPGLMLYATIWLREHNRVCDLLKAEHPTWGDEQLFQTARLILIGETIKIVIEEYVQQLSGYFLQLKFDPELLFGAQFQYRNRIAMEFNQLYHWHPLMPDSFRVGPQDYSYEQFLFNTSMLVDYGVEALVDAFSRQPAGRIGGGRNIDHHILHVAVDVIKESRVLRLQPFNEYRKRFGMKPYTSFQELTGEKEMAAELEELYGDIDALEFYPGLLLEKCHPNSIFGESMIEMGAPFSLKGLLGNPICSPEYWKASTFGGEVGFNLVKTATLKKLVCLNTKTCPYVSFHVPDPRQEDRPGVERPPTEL
Method: as §1

[2] = system: carrageenan-induced paw oedema; test: Carrageenan-induced rat paw oedema; type: in vivo; settings: 50 mg/kg oral; for %Inhibition of paw oedema, 1h / Paw thickness change mean ± SEM, 1h: 1 h after carrageenan; for Paw thickness change mean ± SEM, 1h / Paw thickness change mean ± SEM, 3h / Paw thickness change mean ± SEM, 5h: n = 4; for %Inhibition of paw oedema, 3h / Paw thickness change mean ± SEM, 3h: 3 h after carrageenan; for %Inhibition of paw oedema, 5h / Paw thickness change mean ± SEM, 5h: 5 h after carrageenan
Method: Female wister rats (150-200 g) were used in this study. The animals were kept at controlled conditions (temperature 23 ± 2 °C, humidity 60 ± 10%) and a 12/12-h light/dark cycle with access to food and water. All procedures relating to animal care and treatments were performed according to protocols approved by the Research Ethical Committee of Faculty of Pharmacy Beni-Suef University (2014-Beni-Suef, Egypt). The anti-inflammatory activity of the synthesised compounds was determined in vivo by […]-induced paw oedema method in rats[49]. Rats were divided into 21 groups of four animals each, and then, they were fasted overnight with free access to water before the experiment. Before any drug administration, thickness of the left hind paw of each rat was measured in millimetres. Group 1 served as a control and administered the vehicle (2.5% Tween 80).

abdominal writhings = test: Acetic acid-induced writhing test (peripheral analgesic activity); settings: 10 mg/kg oral, mice, 0.6% acetic acid i.p.
From the text: Pain was induced by intraperitoneal injection of acetic acid, then counting the number of abdominal writhings.

rat's gastric tissue = test: Histopathological investigation of stomach; type: in vivo; settings: haematoxylin and eosin, after ulcerogenic liability dosing
Method: Whole rats stomach were collected, selected stomach samples from each rat were fixed in 10% neutral buffered formalin for 48 h and routinely processed for paraffin embedding. 5 μm Thickness sections were obtained then stained with haematoxylin and eosin for histopathological evaluation.

[3] = system: latency time of pain response; test: Hot plate method (central analgesic activity); type: in vivo; settings: 10 mg/kg oral, mice, hot plate 55 °C, after 60 min
Method: This method was used to evaluate the central analgesic activity by determination of the delay in the latency time of pain response. […] After 60 min, the animals were placed on a hot plate maintained at 55 ± 0.5 °C. The reaction time was recorded as the time taken by the animals to […] or lick the fore or hind paw or jump off the plate.

[4] = cited from earlier work
COX-2 = settings: cited from earlier work

Compound | Average number of ulcers [1] | Ulcer index [1] | SI, COX-2 selectivity index (COX-1 IC50/COX-2 IC50) (ovine COX-2) | IC50 (ovine COX-1) [µM] | melting point [°C] | %Inhibition of paw oedema, 1h [2] [%] | Paw thickness change mean ± SEM, 1h [2] [mm] | %Inhibition of paw oedema, 3h [2] [%] | Paw thickness change mean ± SEM, 3h [2] [mm] | %Inhibition of paw oedema, 5h [2] [%] | Paw thickness change mean ± SEM, 5h [2] [mm] | Peripheral analgesic activity (writhing) (abdominal writhings) | Histopathological findings in stomach (rat's gastric tissue) | Central analgesic activity (delay in latency time) [3] | Gastric ulceration side effect [4] | COX-2/COX-1 selectivity (SI) (COX-2) | IC50 (ovine COX-2) [µM]
COc1ccc(-c2cc(-c3ccc(-n4cnnn4)cc3)[nH]c(=O)c2C#N)cc1OC [Compound 5e, 6-[4-(1H-Tetrazol-1-yl)phenyl]-4-(3,4-dimethoxyphenyl)-2-oxo-1,2-dihydropyridine-3-carbonitrile] | 1.00 | 1.25 | 37.57 | 7.14 | 272 to 274 | 71 | 0.45 ± 0.16 | 42 | 0.98 ± 0.03 | 49 | 0.68 ± 0.08 | most active | affect only muscular layer of the stomach by causing corrugation and hyalinosis in some muscle bundles and reach to coagulative necrosis | potent analgesic activities | – | – | –
Cc1ccc(-c2cc(C(F)(F)F)nn2-c2ccc(-c3nnn[nH]3)cc2)cc1 [V] | – | – | – | – | – | – | – | – | – | – | – | – | – | – | lacked the side effect of gastric ulceration | 2.16 | –
COc1cc(-c2cc(-c3ccc(-n4cnnn4)cc3)[nH]c(=O)c2C#N)cc(OC)c1OC [Compound 5f, 6-[4-(1H-Tetrazol-1-yl)phenyl]-4-(3,4,5-trimethoxyphenyl)-2-oxo-1,2-dihydropyridine-3-carbonitrile] | 1.25 | 1.25 | 46.07 | 6.45 | > 300 | 79 | 0.33 ± 0.09 | 36 | 1.08 ± 0.10 | 30 | 0.93 ± 0.15 | – | affect only muscular layer of the stomach by causing corrugation and hyalinosis in some muscle bundles and reach to coagulative necrosis | potent analgesic activities | – | – | –
O=C1OCC(c2ccc(-c3nnn[nH]3)cc2)=C1c1ccccc1 [VI] | – | – | – | – | – | – | – | – | – | – | – | – | – | – | lacked the side effect of gastric ulceration | 2.11 | –
COc1ccc(C2CC(c3ccc(-n4cnnn4)cc3)=NN2c2ccc(S(N)(=O)=O)cc2)cc1OC (centres unmarked) [Compound 9a, 4-{3-[4-(1H-Tetrazol-1-yl)phenyl]-5-(3,4-dimethoxyphenyl)-4,5-dihydro-1H-pyrazol-1-yl)benzenesulphonamide] | 1.25 | 2.00 | 21.54 | 7.11 | 226 to 228 | 75 | 0.40 ± 0.00 | 39 | 1.03 ± 0.09 | 19 | 1.08 ± 0.20 | most active | sever congestion in blood capillaries and lymphocytic infiltration; also recorded: caused destructive effect on the mucosa and ulceration | – | – | – | 0.33
CN(C)c1ccc(-c2cc(-c3ccc(-n4cnnn4)cc3)[nH]c(=O)c2C#N)cc1 [Compound 5d, 6-[4-(1H-Tetrazol-1-yl)phenyl]-4-[4-(dimethylamino)phenyl]-2-oxo-1,2-dihydropyridine-3-carbonitrile] | 1.25 | 1.50 | 25.13 | 11.3 | 263 to 265 | 71 | 0.45 ± 0.10 | 63 | 0.61 ± 0.12 | 43 | 0.76 ± 0.15 | most active | Mucous degeneration in gastric glandular epithelium, thickening and hyalinosis of basement membrane, as well as eosinophilic infiltrations in submucosa | – | – | – | 0.45
